Data from PMC9848156 (Chemical Science, 2022).
Read-outs that look alike come from different tables or passages of the source.

How the values were obtained:
[1] = test system: SARS-CoV-2 infected Huh 7.5.1 cells; details: for EC50: read-out: EC50 Huh 7.5.1
Huh 7.5.1 cells = details: read-out: CC50 Huh 7.5.1
[2] = test system: SARS-CoV-2 infected Vero E6 cells
3CL^pro [3] = target: T1, 3CL^pro (Severe acute respiratory syndrome coronavirus 2, UniProt P0DTD1); details: for IC50: read-out: IC50 against 3CL^pro
[4] = Axial ligand exchange with DMSO, DMF or water followed by 1H-NMR; type: physicochemical
Furin = Furin (Homo sapiens, UniProt P09958); type: biochemical; details: read-out: IC50 against Furin; three independent experiments
Furin, sequence (P09958 108-794): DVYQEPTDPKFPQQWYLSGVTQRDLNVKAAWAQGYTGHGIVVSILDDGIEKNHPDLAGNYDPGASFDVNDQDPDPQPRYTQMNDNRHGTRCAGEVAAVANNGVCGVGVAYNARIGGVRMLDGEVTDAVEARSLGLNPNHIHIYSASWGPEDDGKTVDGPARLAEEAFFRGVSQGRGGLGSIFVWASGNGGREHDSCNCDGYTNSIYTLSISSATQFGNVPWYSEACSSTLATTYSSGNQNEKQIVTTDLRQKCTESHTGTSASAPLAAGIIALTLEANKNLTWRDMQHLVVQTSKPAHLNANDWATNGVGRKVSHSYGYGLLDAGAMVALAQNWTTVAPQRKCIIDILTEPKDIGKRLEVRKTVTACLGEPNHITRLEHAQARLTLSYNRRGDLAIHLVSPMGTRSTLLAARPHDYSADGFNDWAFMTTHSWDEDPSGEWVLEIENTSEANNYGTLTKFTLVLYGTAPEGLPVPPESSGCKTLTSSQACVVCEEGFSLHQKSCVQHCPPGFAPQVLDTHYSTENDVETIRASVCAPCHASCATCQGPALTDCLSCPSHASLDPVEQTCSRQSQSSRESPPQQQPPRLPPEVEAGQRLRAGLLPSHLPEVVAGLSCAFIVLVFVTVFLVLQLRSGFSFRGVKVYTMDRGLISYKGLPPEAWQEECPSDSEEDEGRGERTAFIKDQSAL

Aqueous solubility tests = type: physicochemical; details: 0.4–0.1% DMSO or DMF in phosphate-buffered saline
cathepsin B = cathepsin B (Homo sapiens, UniProt P07858); assay: Cathepsin B enzymatic assay; type: biochemical; details: read-out: IC50 against Cathepsin B; three independent experiments
[5] = target: dipeptidyl peptidase-4 (DPP4) (Homo sapiens, UniProt P27487); assay: DPP4 enzymatic assay; type: biochemical; details: read-out: IC50 against DPP4; three independent experiments
dipeptidyl peptidase-4 (DPP4), sequence (P27487 whole entry): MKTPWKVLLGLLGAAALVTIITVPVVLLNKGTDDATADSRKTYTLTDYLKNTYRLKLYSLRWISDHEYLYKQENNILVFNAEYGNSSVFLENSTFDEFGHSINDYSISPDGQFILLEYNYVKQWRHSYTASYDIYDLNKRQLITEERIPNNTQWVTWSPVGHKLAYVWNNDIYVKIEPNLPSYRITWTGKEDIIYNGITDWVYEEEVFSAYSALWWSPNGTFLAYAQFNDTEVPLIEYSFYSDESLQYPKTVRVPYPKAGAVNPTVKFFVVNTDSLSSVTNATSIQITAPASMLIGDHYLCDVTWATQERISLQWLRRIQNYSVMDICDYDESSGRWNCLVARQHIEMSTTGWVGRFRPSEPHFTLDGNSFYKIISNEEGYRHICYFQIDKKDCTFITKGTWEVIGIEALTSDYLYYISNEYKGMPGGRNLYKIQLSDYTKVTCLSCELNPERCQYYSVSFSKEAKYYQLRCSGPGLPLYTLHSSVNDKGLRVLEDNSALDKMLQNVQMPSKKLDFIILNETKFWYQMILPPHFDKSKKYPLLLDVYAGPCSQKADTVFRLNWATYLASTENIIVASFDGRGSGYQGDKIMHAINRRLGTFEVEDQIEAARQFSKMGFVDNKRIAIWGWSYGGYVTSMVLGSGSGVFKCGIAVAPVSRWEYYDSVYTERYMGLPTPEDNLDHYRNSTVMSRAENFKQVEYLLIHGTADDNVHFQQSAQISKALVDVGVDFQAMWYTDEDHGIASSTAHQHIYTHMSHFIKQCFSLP

beta-secretase 1 (BACE1) = beta-secretase 1 (BACE1) (Homo sapiens, UniProt P56817); type: biochemical; details: read-out: IC50 against BACE1; three independent experiments
beta-secretase 1 (BACE1), sequence (P56817 46-501): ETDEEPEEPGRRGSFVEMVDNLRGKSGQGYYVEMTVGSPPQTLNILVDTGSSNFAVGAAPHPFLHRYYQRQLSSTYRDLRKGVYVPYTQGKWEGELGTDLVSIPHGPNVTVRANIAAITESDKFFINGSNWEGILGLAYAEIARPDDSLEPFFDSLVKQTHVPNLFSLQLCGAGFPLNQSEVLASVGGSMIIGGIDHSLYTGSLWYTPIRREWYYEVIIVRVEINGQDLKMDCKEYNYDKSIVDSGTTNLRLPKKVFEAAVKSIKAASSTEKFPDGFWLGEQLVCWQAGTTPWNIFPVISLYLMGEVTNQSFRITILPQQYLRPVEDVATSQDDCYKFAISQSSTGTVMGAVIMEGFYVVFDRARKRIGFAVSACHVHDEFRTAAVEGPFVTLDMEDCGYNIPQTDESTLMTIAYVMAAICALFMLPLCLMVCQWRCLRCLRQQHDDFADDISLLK

3CL^pro [6] = target: T1, 3CL^pro
[7] = target: SARS-CoV-2 Papain-like protease (PL^pro) (Severe acute respiratory syndrome coronavirus 2, UniProt P0DTD1); type: biochemical; details: read-out: IC50 against PL^pro
3CL^pro [8] = target: T1, 3CL^pro; remark: listed apart in the source
cathepsin L = cathepsin L (Homo sapiens, UniProt P07711); assay: Cathepsin L enzymatic assay; type: biochemical; details: read-out: IC50 against Cathepsin L; three independent experiments
cathepsin L, sequence (P07711 114-333): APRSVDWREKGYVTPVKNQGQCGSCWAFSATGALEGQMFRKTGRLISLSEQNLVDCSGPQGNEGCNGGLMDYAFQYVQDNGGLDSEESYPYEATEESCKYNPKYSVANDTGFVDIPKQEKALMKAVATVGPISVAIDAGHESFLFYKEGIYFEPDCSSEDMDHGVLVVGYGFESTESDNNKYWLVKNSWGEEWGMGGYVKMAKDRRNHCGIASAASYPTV

[9] = target: transmembrane serine protease 2 (TMPRSS2) (Homo sapiens, UniProt O15393); assay: TMPRSS2 enzymatic assay; type: biochemical; details: read-out: IC50 against TMPRSS2; three independent experiments
transmembrane serine protease 2 (TMPRSS2), sequence (O15393 whole entry): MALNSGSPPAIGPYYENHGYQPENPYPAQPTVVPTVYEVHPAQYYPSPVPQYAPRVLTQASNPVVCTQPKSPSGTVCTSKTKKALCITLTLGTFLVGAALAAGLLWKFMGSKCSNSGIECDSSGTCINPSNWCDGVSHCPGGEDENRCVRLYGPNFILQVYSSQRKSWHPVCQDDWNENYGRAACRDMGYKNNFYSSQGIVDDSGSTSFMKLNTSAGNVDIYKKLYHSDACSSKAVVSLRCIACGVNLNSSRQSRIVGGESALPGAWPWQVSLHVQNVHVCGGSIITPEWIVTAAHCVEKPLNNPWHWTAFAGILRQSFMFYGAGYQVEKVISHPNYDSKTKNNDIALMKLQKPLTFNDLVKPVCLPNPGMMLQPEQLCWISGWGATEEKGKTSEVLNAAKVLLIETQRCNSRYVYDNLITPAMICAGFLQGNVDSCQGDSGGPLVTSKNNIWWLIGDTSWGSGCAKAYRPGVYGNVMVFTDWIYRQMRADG

Vero E6 cells = details: read-out: CC50 Vero E6
[10] = test system: SARS-CoV-2 infected Vero E6 cells; type: cell-based; details: immunofluorescence microscopy
[11] = test system: SARS-CoV-2 infected Huh 7.5.1 cells; assay: microbe, parasite or virus in culture; details: Severe acute respiratory syndrome coronavirus 2, Huh-7.5.1, 48 h, read-out: EC50 Huh 7.5.1
in vitro [12] = details: African green monkey
in vitro [13] = details: human

## CS(C)=O.O=C([O-])c1ccccn1.[C-]#[O+].[C-]#[O+].[C-]#[O+].[Re+] [1DMSO, [Re(pic)(CO)3(DMSO)]]
[1]
  SI Huh 7.5.1 (CC50/EC50; therapeutic index): 9
  EC50: 1.8 ± 0.5 µM
Huh 7.5.1 cells
  CC50: 16.5 ± 1.3 µM
[2]
  SI Vero E6 (CC50/EC50; therapeutic index): >9
3CL^pro [3]
  effect of extending the preincubation time on 3CL^pro inhibition: strongly enhance the inhibitory activity over time
  IC50: 16.5 ± 3.4 µM
[4]; 2 : 8 DMSO-d6 : H2O, up to 6 h
  aqueous stability of the DMSO adduct: the majority of the compound remained as the DMSO adduct even after 6 h

## O.O=C([O-])c1ccccn1.[C-]#[O+].[C-]#[O+].[C-]#[O+].[Re+] [Compound 1, [Re(pic)(CO)3(H2O)]]
Furin
  IC50: > 100 µM
Aqueous solubility tests
  precipitate or aggregate formation by DLS: No particle formation or aggregation was observed
Cathepsin B
  IC50: > 100 µM
[5]
  IC50: > 100 µM
beta-secretase 1 (BACE1)
  IC50: 83 ± 6 µM
3CL^pro [6]
  Re content bound to protein: 0.7 ± 0.2 equivalents of Re per 3CL^pro
[7]
  IC50: > 100 µM
3CL^pro [8]
  adduct formation with 3CL^pro (deconvoluted mass spectrum): a single attached metal complex
  adduct formation with the GC376-3CL^pro adduct (binding competition): did not show the formation of new products
Cathepsin L
  IC50: 53 ± 7 µM
[9]
  IC50: > 100 µM
3CL^pro [3]
  IC50: 9.1 ± 1.8 µM
[4]
  time to full exchange of the axial ligand in DMF-d7: ≤ 6 h
[4]; within 5 min
  aqua ligand exchange in DMSO-d6: rapid exchange of the aqua ligand with DMSO

## O=C([O-])c1ncccc1F.[C-]#[O+].[C-]#[O+].[C-]#[O+].[Re+] [Compound 2]
3CL^pro [3]
  IC50: 19 ± 3.7 µM

## O=C([O-])c1cc(O)ccn1.[C-]#[O+].[C-]#[O+].[C-]#[O+].[Re+] [Compound 18]
Furin
  IC50: > 100 µM
Cathepsin B
  IC50: > 100 µM
[5]
  IC50: > 100 µM
beta-secretase 1 (BACE1)
  IC50: 76 ± 8 µM
[7]
  IC50: > 100 µM
Cathepsin L
  IC50: 67 ± 9 µM
[9]
  IC50: > 100 µM
3CL^pro [3]
  IC50: 4.6 ± 0.5 µM

## Nc1ccnc(C(=O)[O-])c1.[C-]#[O+].[C-]#[O+].[C-]#[O+].[Re+] [Compound 20]
3CL^pro [3]
  IC50: 8.4 ± 2.2 µM

## O=C([O-])c1cccc(O)n1.[C-]#[O+].[C-]#[O+].[C-]#[O+].[Re+] [Compound 38]
3CL^pro [3]
  IC50: 8.8 ± 3.4 µM

## COc1cccc(C(=O)[O-])n1.[C-]#[O+].[C-]#[O+].[C-]#[O+].[Re+] [Compound 39]
3CL^pro [3]
  IC50: 8.5 ± 1.9 µM

## Nc1cccc(C(=O)[O-])n1.[C-]#[O+].[C-]#[O+].[C-]#[O+].[Re+] [Compound 40]
3CL^pro [3]
  IC50: 10.9 ± 3.1 µM

## CN1CCN(C(=O)N[C@@H](Cc2ccccc2)C(=O)N[C@H](/C=C/S(=O)(=O)c2ccccc2)CCc2ccccc2)CC1 [K777]
[1]
  EC50: > 2 µM
Vero E6 cells
  CC50: > 2 µM
[10]
  concentration protecting cells from viral infection: ≤ 125 nM
Huh 7.5.1 cells
  CC50: > 2 µM
[2]; Vero E6 cells
  SI Vero E6 (CC50/EC50; therapeutic index): >222
[2]; read-out: EC50 Vero E6
  EC50: 0.009 ± 0.002 µM

## CCC(CC)COC(=O)[C@H](C)N[P@](=O)(OC[C@H]1O[C@@](C#N)(c2ccc3c(N)ncnn23)[C@H](O)[C@@H]1O)Oc1ccccc1 [Remdesivir]
[11]
  EC50: < 0.04 µM
[1]; Huh 7.5.1 cells
  SI Huh 7.5.1 (CC50/EC50; therapeutic index): >500
In vitro [12]
  CC50: > 20 µM
In vitro [13]
  CC50: > 20 µM
[2]; Vero E6 cells
  SI Vero E6 (CC50/EC50; therapeutic index): >4
